Results reported in the NIST ThermoML archive (doi:10.1016/j.fluid.2008.04.002).
± gives the expanded uncertainty stated by the source.

Settings: Liquid, Closed cell (Static) method

FCC(F)(F)F [1,1,1,2-tetrafluoroethane]
vapor or sublimation pressure (263.43 K): 195.7 ± 1 kPa
vapor or sublimation pressure (273.32 K): 287.1 ± 1.2 kPa
vapor or sublimation pressure (283.22 K): 407.2 ± 1.5 kPa
vapor or sublimation pressure (288.3 K): 483.6 ± 1.7 kPa
vapor or sublimation pressure (293.29 K): 566.3 ± 1.9 kPa
vapor or sublimation pressure (313.31 K): 1014.7 ± 3.3 kPa
vapor or sublimation pressure (333.32 K): 1680.4 ± 5.4 kPa
vapor or sublimation pressure (353.2 K): 2636 ± 8.3 kPa

FC(F)(F)C(F)(F)F [hexafluoroethane]
vapor or sublimation pressure (253.65 K): 1062.9 ± 2 kPa
vapor or sublimation pressure (258.46 K): 1226.4 ± 2.2 kPa
vapor or sublimation pressure (263.43 K): 1415.3 ± 4.6 kPa
vapor or sublimation pressure (263.45 K): 1415.3 ± 2.5 kPa
vapor or sublimation pressure (268.33 K): 1621.1 ± 2.8 kPa
vapor or sublimation pressure (273.29 K): 1850 ± 3.2 kPa
vapor or sublimation pressure (273.32 K): 1862 ± 6 kPa
vapor or sublimation pressure (278.19 K): 2100.6 ± 3.6 kPa
vapor or sublimation pressure (283.22 K): 2392 ± 7.6 kPa
vapor or sublimation pressure (283.25 K): 2385.8 ± 4.1 kPa
vapor or sublimation pressure (288.2 K): 2697.6 ± 4.6 kPa
vapor or sublimation pressure (288.3 K): 2697.6 ± 8.6 kPa
vapor or sublimation pressure (290.22 K): 2832.9 ± 4.8 kPa
vapor or sublimation pressure (291.22 K): 2903.4 ± 5 kPa
vapor or sublimation pressure (292.22 K): 2976.2 ± 5.1 kPa
